Patent publication US20230167458A1, “FORSKOLIN-INDUCIBLE PROMOTERS AND HYPOXIA-INDUCIBLE PROMOTERS” (ASKLEPIOS BIOPHARMACEUTICAL, INC., priority 2020, published 2023)

Experiments:
CHO-GS-KSV1 cell line = experiment: SEAP expression in stably transfected CHO-GS-KSV1, forskolin or NKH477 induction; assay type: cell-based, chinese hamster; conditions: for optimal inducer concentration to induce expression from RTV-019: stably transfected CHO-GS-KSV1/CHO-K1SV, SEAP after 24 hours, 2, 5, 9, 18 or 32 pM tested
Procedure: The forskolin-inducible promoters were then tested in a stably transfected CHO-GS-KSV1 cell line.
• CD-CHO media (Life technologies, CAT #10743029) • Corning 125 mL Polycarbonate Erlenmeyer Flask with Vent Cap (CAT #734-1885). • Gene Pulser® Electroporation Cuvettes, 0.4 cm gap (BioRad, CAT #165-2088) • Gene Pulser Xcell Total System (BioRad, CAT, #1652660) • GS-vector DNA ([…] in 100 μL TE buffer) linearised with Sca1 • Suspension cultures of CHOK1SV GS-KO host cells.
Cell suspensions of 6×10^5 cells per mL were incubated on an orbital shaker set at 8% CO2, 20% O2, 37° C., 85% relative humidity and 140 rpm overnight. 2.86×10^7 cells were centrifuged at 200 g for 3 minutes. Media was then aspirated and cell pellet resuspended in 2 mL fresh CD-CHO media to obtain a concentration of 1.43×10^7 cells per mL. 700 μL of cell suspension was added to each of two electroporation cuvettes each containing […] of linearised DNA in 100 μL of sterile TE buffer (Thermofisher, 12090015). Each cuvette was electroporated, delivering a single pulse of 300V, […] with resistance to infinity. Immediately after delivery of pulse electroplated cells were transferred to Erlenmeyer 125 mL flask containing 20 mL of CD-CHO media pre-warmed to 37° C. Electroporated cells from two cuvettes are combined into a single 125 mL flask to generate one pool of cells. Cells are cultured on an orbital shaker set at 8% CO2, 20% O2, 37° C., 85% relative humidity and 140 rpm. Cells are transferred to fresh CD-CHO media 24 hours after transfection and cell cultures monitored and given fresh CD-CHO media every 2-4 days. Usually after about 10-14 days cell numbers will be high enough to start passaging.
The transfected DNA was the pXC-17.4 expression vector (Lonza Biologics plc) where one of the promoter constructs (or a control promoter (CMV-IE) have been cloned upstream of the secreted alkaline phosphatase (SEAP) gene, which had been cloned into the multiple cloning site within the vector expression cassette. Promoters were closed into the pXC-17.4 vector using Gibson assembly. The pXC-17.4 expression vector is designed for making stable cell lines in the CHO-GSK1SV cell line as it contains the […] gene which has been knocked out of the cell line. Therefore, selection of cells in glutamine drop-out medium will select for cells that have stably integrated the plasmid.
The responsiveness of the RTV-019 promoter to different concentrations of forskolin and […] was tested in the stably transfected CHO-GS-KSV1 cell line. To this end, the stably transfected CHO-GS cells were seeded at 500,000 cells/ml and allowed to grow for 24 hrs. At this point the cells were induced by addition of the respective concentrations of forskolin and NKH477 and SEAP expression was measured as described below after 24 hours.
The promoter activity and inducibility of FMP-02, FORCYB-001, RTV-017, FORCSV-10, FOR-CMC-009, FLP-01 and RTV-019 were also tested in the stably transfected CHO-GS-KSV1 cell line. To this end, the stably transfected CHO-GS cells were seeded at 500,000 cells/ml and allowed to grow for 24 hrs. At this point the cells were exposed to […] forskolin or […] NKH477 for 24 hours. After this point, the SEAP activity in the medium was assessed as described below.
SEAP Reporter Gene Assay, chemiluminescent (Roche, CAT #11 779 842 001) was used to measure SEAP activity as per the manufacturer's protocol. All reagents and samples were fully pre-equilibrated at room temperature. Culture supernatant was collected from the stably transfected CHO-GS at the specific time points (0 h and 24 h). The supernatant was diluted 1:4 in dilution buffer and heat treated at 65° C. for 30 minutes. The heat-treated sample was then centrifuged for 30 s at maximum speed. 50 μl of the heat-treated sample was then added to 5 μl of inactivation buffer and incubated for 5 min at room temperature. 50 μl of substrate reagent was then added and incubated for 10 min at room temperature. […]

[1] = system: Huh7 human liver cell line; experiment: Luciferase expression from promoters in pAAV vector (with ITRs) in Huh7, forskolin or NKH477 induction; design: fold induction with forskolin: dose or concentration left out as unconfirmed
Procedure: The forskolin-inducible promoters RTV-017, RTV-019 and FORCYB1 were then used to drive expression of luciferase in a pAAV vector in the Huh7 human liver cell line. […] This experiment was performed to investigate the effect of the Inverted Terminal Repeats (ITRs) on the activity of the promoters.
The cells were seeded, transfected and induced as described above. Luciferase expression was measured as described above. In this experiment, the cells were induced by using 20 pM forskolin or 7.2 pM of the water soluble derivative NKH477.

| Molecule | optimal inducer concentration to induce expression from RTV-019 (CHO-GS-KSV1 cell line) | optimal inducer concentration to induce expression from RTV-019 (CHO-GS-KSV1 cell line; listed as forskolin) | potency as inducer of the promoters compared with forskolin (CHO-GS-KSV1 cell line; stable CHO-GS-KSV1, 7.2 µM NKH477 vs 20 µM forskolin) | optimal inducer concentration to induce expression from RTV-019 (CHO-GS-KSV1 cell line; listed as NKH 477) | fold induction with forskolin ([1]; Huh7) | luciferase activity without induction (background) ([1]; Huh7) | fold induction with NKH477 ([1]; Huh7, 7.2 pM NKH477) | luciferase activity following induction ([1]; Huh7, or 7.2 pM NKH477) |
| --- | --- | --- | --- | --- | --- | --- | --- | --- |
| C=C[C@@]1(C)CC(=O)[C@]2(O)[C@@]3(C)[C@@H](O)CCC(C)(C)[C@@H]3[C@H](O)[C@H](OC(C)=O)[C@@]2(C)O1 [Forskolin] | about 18 pM | 18 µM | – | – | – | – | – | – |
| C=C[C@@]1(C)CC(=O)[C@]2(O)[C@@]3(C)[C@@H](O)CCC(C)(C)[C@@H]3[C@H](OC(=O)CCN(C)C)[C@H](OC(C)=O)[C@@]2(C)O1.Cl [NKH477, NKH 477] | 8 µM | – | slightly more potent inducer | about 8 pM | – | – | – | – |
| FORCYB1: synthetic forskolin-inducible promoter, SEQ ID NO: 45; 5× cAMPRE and 4× AP1 TFBS and YB-TATA (nucleic acid, synthetic forskolin-inducible promoter) DNA: TGACGTCACGATTACCATTGACGTCACGATTACCATTGACGTCACGATTACCATTGACGTCACGATTACCATTGACGTCAGCGATTAAGATGACTCAGCGATTAAGATGACTCAGCGATTAAGATGACTCAGCGATTAAGATGACTCAGCGATTAATCCATATGCTCTAGAGGGTATATAATGGGGGCCACTAGTCTACTACCAGAAAGCTTGGTACCGAGCTCGGATCCAGCCACC | – | – | – | – | 65 fold | low background activity | 30 fold | high activity |
